In patent US20180303863A1, “Pharmaceutical Composition for Treating STK11-Mutation Cancer Using Cardiac Glycosides” (INDUSTRY-ACADEMIC COOPERATION FOUNDATION SOOKMYUNG WOMEN'S …, priority 2014, published 2018):

Assays:
[1] = tested on: STK11 mutant cell lines (NCI60 panel); assay: CLEA enrichment analysis of GI50 profiles on the NCI60 panel by STK11 genotype; format: cell-based; conditions: MOLT-4, A549, NCI-H460, NCI-H23, SK-MEL-5, DU-145, FIG. 3A
Procedure: To identify sensitivity patterns of the genotype-specific compounds, a subset of the compounds was selected using a GI50 profile pattern on a CLEA map.
First of all, a −logGI50 value of 8 (that is, GI50=0.01 μM) was chosen as a bipartite cutoff used to determine to which cell lines a compound was sensitive on a NCI60 panel. In this case, the compound was sensitive when the value is greater than 8, and was not sensitive when the value is less than 8.
Next, an enrichment score (an AUC value) was used to select the genotype-specific compounds in a CLEA assay.
An AUC value >80 and a P value <0.01 were used as cutoff values used to determine that a compound had significant sensitivity to certain genotypes. In this example, compounds showing strong potency (that is, a −logGI50 value of 8) to at least one cell line on the NCI60 panel were included.
As a result, a total of three non-overlapping compounds satisfying the above filtering requirements were compiled. Hierarchical clustering of these selected compounds was carried out on a category of STK11 genotypes. In this example, three main groups of compounds showing uniform sensitivity based on the mutant genotypes were identified. Such a cluster of compounds were sensitive to genetic mutations in an STK11 gene.

[2] = tested on: STK11-mutant lung cancer cell lines (A549, H460, H1993, H1395) and STK11-wild-type lung cancer cell lines (H226, H322M, H82, H524); assay: Cell viability (CellTiter-Blue) in STK11-mutant and STK11-wild-type lung cancer cell lines; format: cell-based; conditions: varying concentration, 72 hours; FIG. 5A
Procedure: NCI-60 lung cancer cell lines (NCI-H460, A549, NCI-H322M, and NCI-H226) were obtained from the U.S. National Cancer Institute (NCI DTP). All cells were grown in an RPMI medium (GIBCO) supplemented with 10% FBS (GIBCO) and penicillin/[…] (GIBCO), and kept at 37° C. in a humidified atmosphere of 5% CO2.
A total of three cardiac glycosides (chemicals) having the structures shown in FIG. 1 were screened in a lung cancer cell line. Digoxin, ouabain, and digitoxin were all purchased from Sigma Aldrich.
(§1) The cells were seeded in 96-well plates at a density of 2,000, 1,000, and 200 cells per well, and cultured for 3, 7, and 14 days, respectively. After 24 hours of seeding, the cells were treated with a chemical diluted with digitoxin and ouabain at working concentrations of 0.05 μM and 0.02 μM, respectively. The cells were again cultured for 72 hours (3 days), 7 days, and 14 days, and then the cell viability was measured using a CellTiter-Blue assay kit.

[3] = tested on: STK11-mutant cell line (A549) and cell line (A549-STK11) in which STK11 was restored into the wild type; assay: Cell viability (CellTiter-Blue) in A549 versus the STK11-restored A549-STK11 line; format: cell-based; conditions: for inhibition of cell growth in lung cancer cell lines A549 and A549-STK11: 96-well plate; for response of the STK11-restored cell line compared to the STK11-mutant cell line (inhibition of cell growth, TiterBlue): FIG. 5B
Procedure: as §1
In this case, each of a STK11-mutant cell line (A549) and a cell line (A549-STK11) in which STK11 was restored into the wild type were used as the lung cancer cell line.

[4] = tested on: A549 lung cancer cell line; assay: Mouse tumor xenograft model, A549; format: in vivo, athymic nude mice
Procedure: (§2) After athymic nude mice (Oriental Bio Inc) were purchased, the animal model was prepared according to the standard guidelines provided by the Catholic University of Korea-Institutional Animal Care and Use Committee (CUK-IACUC). A549 or A549-LKB 1 wt were subcutaneously injected (3×10^6 cells/ml) into the above animal model, and divided into three groups: (1) an untreated control group (n=10); (2) a group in which the mice were treated with digoxin at 60 ng/kg/body weight (n=10); (3) a group in which the mice were treated with digoxin at 180 ng/kg/body weight (n=10). Digoxin or a vehicle (1.9% DMSO/10% polyethylene glycol 400/l×PBS: a total volume of 200 μl) was orally administered three times a week for 5 weeks. Then, the diameter of each tumor base was measured, and the size of a tumor was then calculated according to the following equation: Tumor size (mm^3)=(length×width×height×0.52). Also, the mice were monitored until the tumor size reached 1 cm^3, and then the mice were sacrificed, and tumors were extracted from the mice.

[5] = tested on: cell line (A549-LKB1wt) in which STK11 was restored into the wild type; assay: Mouse tumor xenograft model, A549-LKB1wt (STK11 restored); format: in vivo, athymic nude mice; conditions: oral, three times a week for 5 weeks, 60 or 180 ng/kg/body weight; FIG. 10B
Procedure: as §2

Structure (SMILES): C[C@H]1O[C@@H](O[C@H]2[C@@H](O)C[C@H](O[C@H]3[C@@H](O)C[C@H](O[C@H]4CC[C@@]5(C)[C@H](CC[C@@H]6[C@@H]5CC[C@]5(C)[C@@H](C7=CC(=O)OC7)CC[C@]65O)C4)O[C@@H]3C)O[C@@H]2C)C[C@H](O)[C@@H]1O [digitoxin]
- sensitivity (GI50 profile) in 6 cell lines with STK11 mutation potential [1]: relatively high sensitivity
- inhibition of cell growth, STK11-mutant compared to STK11-wild-type lung cancer cell lines [2]: specifically inhibited the cell growth
- inhibition of cell growth in lung cancer cell lines A549 and A549-STK11 [3]: the cell growth was inhibited
- response of the STK11-restored cell line compared to the STK11-mutant cell line (inhibition of cell growth, TiterBlue) [3]: resistant

Structure (SMILES): C[C@H]1O[C@@H](O[C@H]2[C@@H](O)C[C@H](O[C@H]3[C@@H](O)C[C@H](O[C@H]4CC[C@@]5(C)[C@H](CC[C@@H]6[C@@H]5C[C@@H](O)[C@]5(C)[C@@H](C7=CC(=O)OC7)CC[C@]65O)C4)O[C@@H]3C)O[C@@H]2C)C[C@H](O)[C@@H]1O [digoxin]
- sensitivity (GI50 profile) in 6 cell lines with STK11 mutation potential [1]: relatively high sensitivity
- inhibition of cell growth, STK11-mutant compared to STK11-wild-type lung cancer cell lines [2]: specifically inhibited the cell growth
- inhibition of cell growth in lung cancer cell lines A549 and A549-STK11 [3]: the cell growth was inhibited
- response of the STK11-restored cell line compared to the STK11-mutant cell line (inhibition of cell growth, TiterBlue) [3]: resistant
- tumor growth in the STK11-mutant model compared to the wild-type STK11-expressing model ([4]; FIGS. 10C, 10D, 10E): selectively reduced
- growth of a tumor ([4]; oral, three times a week for 5 weeks, 60 or 180 ng/kg/body weight, FIG. 10A): reduced in a time-dependent manner
- growth of a tumor [5]: did not have the same effect

Structure (SMILES): C[C@@H]1O[C@@H](O[C@H]2C[C@@H](O)[C@]3(CO)[C@H]4[C@H](O)C[C@]5(C)[C@@H](C6=CC(=O)OC6)CC[C@]5(O)[C@@H]4CC[C@]3(O)C2)[C@H](O)[C@H](O)[C@H]1O [ouabain]
- sensitivity (GI50 profile) in 6 cell lines with STK11 mutation potential [1]: relatively high sensitivity
- inhibition of cell growth, STK11-mutant compared to STK11-wild-type lung cancer cell lines [2]: specifically inhibited the cell growth
- inhibition of cell growth in lung cancer cell lines A549 and A549-STK11 [3]: the cell growth was inhibited
- response of the STK11-restored cell line compared to the STK11-mutant cell line (inhibition of cell growth, TiterBlue) [3]: resistant
